# Experimental data: patent publication US6878522B2, “Methods for the identification of compounds useful for the treatment of disease states mediated by prostaglandin D2” (priority 2000, dated 2005)
# pEC50: −log10 of the molar value.
# Experiments:
# CRTH2 [1] = target: T1, CRTH2 (Homo sapiens, UniProt Q9Y5Y4); test: Competition with 3H-PGD2 binding at the CRTH2 receptor (Examples 6-9); conditions: from IC50 at CRTH2 and at DP
# T1 construct: prolactin (prolac) signal peptide (N); expressed in transfected cells; host or cells: 300-19 cells (transformed murine pre-B lymphocytes)
# T1 sequence (Q9Y5Y4 1-395): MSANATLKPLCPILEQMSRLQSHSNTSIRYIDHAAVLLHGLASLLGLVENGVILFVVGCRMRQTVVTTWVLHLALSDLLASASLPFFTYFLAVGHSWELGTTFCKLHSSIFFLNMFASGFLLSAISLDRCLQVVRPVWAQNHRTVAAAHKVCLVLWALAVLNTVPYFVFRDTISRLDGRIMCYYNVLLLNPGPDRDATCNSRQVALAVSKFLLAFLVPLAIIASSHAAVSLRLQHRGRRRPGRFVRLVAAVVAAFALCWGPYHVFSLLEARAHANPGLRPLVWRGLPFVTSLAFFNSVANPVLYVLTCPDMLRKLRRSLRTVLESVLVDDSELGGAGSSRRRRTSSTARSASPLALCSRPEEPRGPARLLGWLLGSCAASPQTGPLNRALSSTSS
# Method: To directly determine the binding affinity of CRTH2 for PGD2, the following binding assay was used. Transfected and parental 300-19 cells were washed twice at room temperature with assay buffer, and resuspended at a concentration of 2×10^7 cells/ml. Using a 96-well U-bottom polypropylene plate (Costar, Corning Inc., Acton, Mass.), the assay was set up as follows: 50 μl of vehicle (0.3% DMSO in assay buffer, total wells) or of […] cold PGD2 (NS wells); 50 μl cells (2×10^7 cells/ml for 10^6 cells per well); 50 μl 6 nM [3H]-PGD2. The plate was allowed to incubate for 20 min at RT before centrifugation (2800 rpm, Sorval RT6000, 5 min, 4° C.). The plate was harvested (Packard Unifilter plate GF/C, previously soaked in 3% PEI for at least 1 hr) with cold assay buffer using a Packard Filtermate Cell Harvester (6×150 μl buffer wash per well). The filterplate was dried overnight. After the addition of 50 μl scintillation fluid (Packard Microscint 0), the plate was counted in a Packard Topcount scintillation counter (1 min per well). […] The solutions of labeled PGD2 and unlabeled “cold” PGD2 were prepared as follows: 10 μl of [^3H]-PGD2 (Amersham lot # TRK734 162 Ci/mmol, 0.1 Ci/ml in methanol: water: acetonitrile (3:2:1), 617 nM) per ml assay buffer was used to prepare a solution of [^3H]-PGD2 at a concentration of 6 nM (50 μl/well for final conc. of 2 nM); cold PGD2 (Biomol #PG-005, lot # P4653) was dissolved in DMSO for a stock of 10 mM (stored at −20° C.). The 10 mM stock was diluted 3:1000 to obtain a final concentration of […] (50 μl/well for final conc. of […]). Assay buffer: Hank's balanced saline supplemented with HEPES and sodium bicarbonate: 100 ml/L of 10× Hank's Balanced saline (with Ca^+2, Mg^+2); 10 ml/L of 1M HEPES; 4.7 ml/L of 7.5% Sodium Bicarbonate.
# In the assay, the capacity of each D-ring compound to compete with binding of ^3H-PGD2 was measured at both the CRTH2 and DP receptors, and an IC50 value (in μM) was determined. […] The binding assay procedure of Example 1 was used. Preferably, the ratio of IC50 at CRTH2 to IC50 at DP is less than about twenty, and more preferably is […].
# [2] = test system: isolated human eosinophils; test: Reactive oxygen species (ROS) release in isolated human eosinophils; type: cell-based
# Method: Another secondary assay is the reactive oxygen species release assay. One measure of PGD2-induced activation of CRTH2 cells, such as eosinophils, is the intracellular release of reactive oxygen species. This can be tested in a reactive oxygen species release assay, or ROS, using lucigenin-dependent chemiluminescence to measure reactive oxygen species release. In this method, freshly isolated eosinophils are prepared, by standard methods, and resuspended at concentration 2-4×10^6 cells/ml in (RPMI; 10 mM HEPES; 1× Pen/Strep; 0.5% FBS) at room temperature. Immediately prior to use, 1 ml of cell suspension is added to 9 ml of buffer, prewarmed to 37° C. for 15 minutes, and added 0.5 ml of 200 mM Lucigenin.
# Test compounds (made as 10,000× DMSO stocks) are diluted in buffer with DMSO (1.5 ul of DMSO/2.5 ml Buffer) and 25 μl/well added to white 96-well culture plate and placed in a 37° C. incubator. Isolated cells (held at room temperature) are diluted with room temperature buffer to 2-4×10^6 cells/ml, and incubated in a water bath at 37° C. for 15 minutes. At 15 minutes, 0.5 ml 200 mM lucigenin (bis-N-Methylacridinium Nitrate; Sigma, St. Louis, Mo.) is added to 10 ml of the cell suspension, mixed, and 100 μl/well is added to the prewarmed microtiter plate. The plate is returned to 37° C. for 5 minutes, at which time 25 μl of stimulus is added) The plate is read in the luminometer for 8 cycles. The luminescence of test compounds can be tested in the presence of PGD2, relative to a control sample containing PGD2 alone. A compound that interferes with the ability of PGD2 to result in intracellular reactive oxygen species release in CRTH2 cells, is a candidate for a CRTH2 antagonist.
# [3] = test system: isolated human eosinophils; test: [Ca2+]i mobilization in isolated human eosinophils; type: cell-based
# Source text: Calcium mobilization can be detected and measured by flow cytometry, and by labeling with fluorescent dyes that are trapped intracellularly. […] The ratio of fluorescence produced by the calcium-bound dye to that produce by the unbound dye is used to estimate the intracellular calcium concentration. In one embodiment, for example, the following method can be used. Cells that express CRTH2 are collected, and resuspended in fresh media at ˜2×10^5/ml the day before performing the calcium flux assay. Cells are incubated at 37° C. for not longer than 20-30 minutes, and then spun down and resuspended in 50 ml fresh PTI buffer (Hank's Buffer, pH 7.2-7.4; 10 mM Hepes; 1.6 mM CaCl2) containing Indo-1 AM, pre-warmed to 37° C., at a concentration of 10 million per ml. Cells are excited, and fluorescence is measured using a fluorimeter (Photon Technology Corporation, International). After the readout has stabilized, the time axis is reset, and PGD2 is added at a specific time point (e.g., 20 seconds). After response, the following reagents are added to the cuvette, to release and chelate total calcium, in the following order: 20 μl of 18% Triton X-100, 20 μl of 3M Tris, pH 8.5, and 20 μl of 0.5 M EGTA, pH 8.5. The experiment is repeated in the presence and the absence of a test compound. […] Therefore, in the presence of an […] test compound, the EC50 would be expected to be higher than this value, whereas in the presence of an agonist test compound, the EC50 would be expected to decrease.
# [4] = test system: human whole blood eosinophil; test: Human whole blood eosinophil actin-polymerization response; type: cell-based; conditions: read-out: Actin-polymer EC50
# Source text: Yet another secondary screening assay is an actin polymerization assay. Another biological effect of the interaction of PGD2 with CRTH2 is actin polymerization. Thus, an actin polymerization assay may be used as a secondary screen to characterize the activity of a compound isolated in the primary screening assays of the invention. In one embodiment, actin polymerization may be assayed using an actin-specific fluorescent label, nitrobenzoxadiazole (NBD)-phallacidin, which binds polymerized actin fiber. In a specific embodiment, the assay may be performed as follows: cell preparations are resuspended at 5-10×10^6 cells/ml in RPMI 1640 plus 10 mM HEPES, 100/10 Pen/Strep, and 0.5% FCS. The cell suspension is aliquoted (100 μL per well) into a 96-well U-bottom polypropylene microtiter plate. 50 ul of the appropriate stimulus (PGD2 or test compound, or both PGD2 and test compound) is added using an 8-channel pipette followed exactly 25 seconds later by 50 ul of a stopping solution which contains lysophosphotidylcholine (0.5 mg/ml), Hank's balanced salt solution (100 ul 10×), 16% formaldehyde (800 ul), and 6.6 uM NBD-phallacidin in MEOH (100 ul). The plate is allowed to sit at room temperature for 15 minutes. The plate is then centrifuged at 1000 rpm for 5 minutes, the supernatants flicked off and the cell pellets resuspended in 250 ul PBS plus 2%FCS and 0.2% sodium azide. Each sample is then read on a FACS Caliber instrument. Cells are gated using the forward scatter/side scatter data in the lymphocyte area. Responses are measured by the change in median FL-1 fluorescence between vehicle treated cells and stimulus treated cells. Test compounds can be assayed in the presence and absence of PGD2, and compared to a sample containing PGD2 alone. A compound that reduces PGD2-induced actin polymerization of CRTH2 cells is identified as a candidated CRTH2 antagonist.
# [5] = test system: isolated human eosinophils; test: Chemotaxis of isolated human eosinophils; type: cell-based
# Method: In a specific example of this method, a competitive assay is performed to test compounds for their ability to interrupt the attraction of CRTH2 cells to PGD2. In this method, test compounds are diluted into the bottom wells of the Boyden chemotaxis chamber. A constant amount of PGD2 is also added to this dilution series, at a concentration known to have a chemotactic effect on CRTH2 cells. As a control, at least one aliquot contains only PGD2. Cells expressing CRTH2 are resuspended at 3-3.5×10^6 cells/ml in RPMI 1640 supplemented with 10 mM HEPES and 1 mg/ml bovine serum albumin (Sigma, St. Louis, Mo.), and placed into the upper wells of the chamber. The chambers are incubated for 90-120 minutes at 37° C. in a humidified CO2 incubator. After the incubation period, the number of migrating cells on the lower surface of the membrane filter is counted using light microscopy. The contribution of the test compound to the chemotactic activity of PGD2 is measured by comparing the chemotactic activity of the aliquots containing only PGD2 with the activity of aliquots containing test compound and PGD2. If addition of the test compound to the PGD2 solution results in a […] in the number of cells detected on the lower surface of the membrane relative to the number of cells detected using a solution containing only PGD2, then there is identified an antagonist of PGD2 induction of chemotactic activity of cells expressing CRTH2. In contrast, if the addition of the test compound to the PGD2 solution results in a […] in the number of cells detected on the lower surface of the membrane (relative to the number of cells detected using a solution containing only PGD2), then an […] of PGD2 induction of chemotactic activity of cells expressing CRTH2 is identified.
# The chemotactic response of human T lymphocytes to PGD2, murine MDC and murine mSDF was also assayed. Chemotaxis was determined using a 48-well Boyden chamber (Neuroprobe, Cabin John, Md.), and 3.0 μm polycarbonate filters. Cells were resuspended (3-3.5×10^6 cells/ml) in RPMI 1640 supplemented with 10 mM HEPES and 1 mg/ml bovine serum albumin (Sigma, St. Louis, Mo.), and placed into the upper wells of the chamber. The compound to be tested was placed in the lower wells. The chambers were incubated for 90-120 minutes at 37° C. in a humidified CO2 incubator. At the end of the incubation period, the number of migrating cells on the filter (expressed per high power field) were enumerated microscopically. […] In FIG. 4, the chemotactic response of human basophils to PGD2 and C5a is shown.
# CRTH2 [6] = target: T1, CRTH2; test: [Ca2+]i mobilization assay in 300-19 cells expressing CRTH2; type: cell-based; conditions: CRTH2 stable cell line (300-19 transfectants)
# Source text: Using 300-19 cells (transformed pre-B lymphocytes) expressing CRTH2, a number of mast cell and non-mast cell-derived mediators were screened in a [Ca^2+]i mobilization assay. […]
Compound,selectivity for the CRTH2 receptor (in comparison with DP) (CRTH2 [1]),pEC50 [2],pEC50 [3],pEC50 [4],pEC50 [5],pEC50 (CRTH2 [6])
"CCCCCC(=O)CCC1C(=O)CC(O)C1C/C=C\CCCC(=O)O (stereo not drawn) [13,14-dihydro-15-keto PGD2]",particularly selective for CRTH2,–,–,–,–,–
CCCCC[C@@](C)(O)/C=C/[C@H]1C(=O)C[C@H](O)[C@@H]1C/C=C\CCCC(=O)O [15(R)15-methyl PGD2],particularly selective for CRTH2,–,–,–,–,–
"CCCCC/C=C\C=C1\C(=O)CC(O)C1C/C=C\CCCC(=O)O (stereo not drawn) [15-deoxy-delta 12, 14, PGD2]",particularly selective for CRTH2,–,–,–,–,–
CCCCC[C@H](O)/C=C/[C@@H]1[C@@H](C/C=C\CCCC(=O)O)[C@H]2CO[C@@H]1C2 [Compound U-46619],–,< 7.00,< 6.00,–,–,–
"CCCCC[C@H](O)/C=C/[C@@H]1[C@@H](C/C=C\CCCC(=O)O)[C@@H](O)C[C@@H]1O [Pa, 11b-PGF2]",–,< 7.00,–,< 6.00,< 7.00,–
PGJ2,–,7.12,6.89,5.74,< 7.00,6.70

# The next lines start with the values.
selectivity for the CRTH2 receptor (in comparison with DP) (CRTH2 [1]),pEC50 [2],pEC50 [3],pEC50 [4],pEC50 [5],pEC50 (CRTH2 [6]),Compound
–,< 6.00,< 6.00,< 4.00,< 7.00,–,CCCCC[C@H](O)/C=C/[C@@H]1[C@H]2C/C(=C/CCCC(=O)O)O[C@H]2C[C@H]1O [PG12]
–,< 7.00,< 6.00,< 4.00,< 7.00,–,CCCCC[C@H](O)/C=C/[C@H]1[C@H](O)CC(=O)[C@@H]1CCCCCCC(=O)O [PGE1]
